# Test results from US8614222B2, “Methods of preventing and treating low bone mass diseases” (The Trustees of Columbia University in the City of New York, priority 2008, dated 2013).
# Key:
# Assay type in all cases: in vivo
# brain serotonin [1] = experiment: Brain serotonin content in wild-type mice (HPLC); details: WT mice, 250 mg/kg orally
# Method: FIG. 15. HPLC analysis of serotonin content in the brain of wild-type mice that received vehicle or LP-533,401 (250 mg/kg, orally) for 1 day.
# Blood samples were collected from mice and rats through cardiac puncture under isoflurane anesthesia, kept on ice for 5 min, and centrifuged at 13,000 rpm for 10 min at 4° C. Serum samples were stored at −80° C. until hormonal analyses were performed. Serum serotonin levels were quantified by ELISA (Serotonin kit, Fitzgerald) while serotonin levels in brain regions were quantified by HPLC as described previously (Mann et al., 1992, Arch. Gen. Psychiatry 49:442-446). Serum levels of total deoxypyridinoline (DPD) cross-links was measured using the Merta tDPD kit (Quidel corp. Sandiago, Calif.) and Osteocalcin using Rat and Mouse Ocn IRMA kit.
# serum serotonin = experiment: Serum serotonin levels in ovariectomized mice; details: OVX mice
# Method: (§1) Six-week-old wild-type virgin female mice were purchased from the Jackson Laboratories and subjected to either bilateral ovariectomy or a sham operation after a few days of acclimatization to the animal facility post-arrival. Ovariectomy was performed under isofluorane anesthesia through dorsal, subrenal incision. In the first experiment, mice were treated from day 1 post-ovariectomy for 4 weeks with LP-533,401 (1, 10, 100 or 250 mg/kg/day) or vehicle. In the second experiment, mice were treated for 4 weeks from 2 to 6-weeks post-ovariectomy with LP-533,401 (250 mg/kg/day) or vehicle. In the third set of experiments, mice were treated for 6 weeks from 6 to 12-weeks post-ovariectomy with LP-533,401 (250 mg/kg/day) or vehicle. […]
# (§2) Blood samples were collected from mice and rats through cardiac puncture under isoflurane anesthesia, kept on ice for 5 min, and centrifuged at 13,000 rpm for 10 min at 4° C. […] Serum serotonin levels were quantified by ELISA (Serotonin kit, Fitzgerald) while serotonin levels in brain regions were quantified by HPLC as described previously (Mann et al., 1992, Arch. Gen. Psychiatry 49:442-446). Serum levels of total deoxypyridinoline (DPD) cross-links was measured using the Merta tDPD kit (Quidel corp. Sandiago, Calif.) and Osteocalcin using Rat and Mouse Ocn IRMA kit.
# brain serotonin [2] = experiment: Brain serotonin content in ovariectomized mice; details: OVX mice
# Method: as §1, §2
# ovariectomized rats = experiment: Curative regimen in ovariectomized rats (histomorphometry, μCT, biomechanical testing); details: OVX rats
# Method: Virgin female Sprague-Dawley rats (National Institute of Nutrition, Hyderabad, India) were obtained at 3 months of age and allowed to acclimate to the facility for 1 week before study initiation and surgical procedures. They were housed under a 12 hour:12 hour light:dark cycle and provided throughout the study with water and PMI (Purina Mills, Incorporated) Certified Rodent Laboratory Chow. Rats were subjected to either bilateral ovariectomy or a sham operation under isoflurane anesthesia. […] The rats were divided into two groups of sham-operated and ovariectomized animals and left untreated for 3 weeks to allow bone loss to occur. One group of sham and one group of ovariectomized rats (n=10/group) were killed as baseline controls to determine bone loss before the start of LP-533,401 or PTH administration. The remaining animals (n=5-10/group) received vehicle or LP-533,401 (250 mg/kg/day) by gavage, or recombinant human PTH (80 ug/kg) by daily subcutaneous (s.c.) injection for 4 weeks. The 80 ug/kg dose of PTH was selected as being optimal for reversal of ovariectomy-induced bone loss in rats based on previous studies, while the dose of LP-533,401 was selected based on the effective dose for bone loss-reversal observed in mice experiments. To label bone-forming surfaces, animals were injected s.c. with calcein (8 mg/kg) at 10 and 3 days before death. Animals were killed by an overdose of Isofluorane anesthesia. The right tibia and lumbar vertebra 2 (L2) were collected, cleaned of excess soft tissue, fixed overnight in 10% formalin and processed for μCT or histomorphometric analysis. The right femur and L3 were cleaned of excess tissue and stored at −20° C. prior to biomechanical testing.
# (§3) Bone histomorphometry was performed as previously described (Duey et al., 2000, Cell 100:197-207; Takeda et al., 2002, Cell 111:305-317; Parfitt et al., 1987, J. Bone Miner. Res. 2:595-610). Briefly, lumbar vertebrae were dissected, fixed for 24 hr in 10% formalin, dehydrated in graded ethanol series, and embedded in methyl methacrylate resin according to standard protocols (Parfitt et al., 1987, J. Bone Miner. Res. 2:595-610). Von Kossa/Von Gieson staining was performed using 7 μm sections for bone volume over tissue volume (BV/TV) measurement. Bone formation rate (BFR) was analyzed by the calcein double-labeling method (Ducy et al., 2000, Cell 100:197-207). Calcein (Sigma Chemical Co., St. Louis, Mo.) was dissolved in calcein buffer (0.15 M NaCl, 2% NaHCO3) and injected twice at 0.125 mg/g body weight on day 1 and 4, and then mice were killed on day 6. Unstained 4 μm sections were used for bone formation rate (BFR) measurements. For the analysis of parameters of osteoblasts and osteoclasts, 4 μm sections were stained with toluidine blue and tartrate-resistant acid phosphatase (TRAP), respectively (2). Histomorphometric analyses were performed using the Osteomeasure Analysis System (Osteometrics, Atlanta, Ga.).
# Trabecular bone architecture of proximal tibia was assessed using a micro computed tomography (μCT) system (VivaCT 40, SCANCO Medical AG, Bassersdorf, Switzerland). Tibia bone specimen was stabilized with gauze in a 2 ml centrifuge tube filled with 70% ethanol and fastened in the specimen holder of the μCT scanner. One hundred μCT slices, corresponding to a 1.05 mm region distal from the growth plate, were acquired at an isotropic spatial resolution of 10.5 μm. A global thresholding technique was applied to binarize gray-scale μCT images where the minimum between the bone and bone marrow peaks in the voxel gray value histogram was chosen as the threshold value. The trabecular bone compartment was segmented by a semi-automatic contouring method and subjected to a model-independent morphological analysis (Hildebrand et al., 1999, J. Bone Miner. Res. 14:1167-1174) by the standard software provided by the manufacture of the μCT scanner. […]
# naive mice = experiment: Histomorphometric analysis of vertebrae of naive mice; details: naive mice (FIG. 20A: 250 mg/kg/day orally, 6 weeks)
# Method: FIG. 20. (A) Histomorphometric analysis of vertebrae of 12 week-old mice that received vehicle or LP-533,401 (250 mg/kg/day, orally) for 6 weeks. (B-E) Gastrointestinal transit rate (B), colon motility (C), efficiency of gastric emptying (D) and blood coagulation rate (E) in 18 week-old ovariectomized (OVX) mice that received orally vehicle or indicated doses of LP-533,401 for 6 weeks.
# as §3, with “For the analysis of parameters of osteoblasts and osteoclasts, 4 μm sections were stained with toluidine blue and tartrate-resistant acid phosphatase (TRAP), respectively (2). Histomorphometric analyses were performed using the Osteomeasure Analysis System (Osteometrics, Atlanta, Ga.).” left out
# [3] = 250 mg/kg/day for 4 weeks from week 2 post-ovariectomy
# [4] = long bones, μCT, all doses tested
# [5] = LP-533,401 250 mg/kg/day, PTH 80 μg/kg/day
compound,measurement,setting,value
"Nc1nc(OC(c2ccc(-c3cccc(F)c3)cc2)C(F)(F)F)cc(-c2ccc(C[C@H](N)C(=O)O)cc2)n1 (stereo partly drawn) [LP-533401, (2S)-2-amino-3-(4-(2-amino-6-(2,2,2-trifluoro-1-(3′-fluorobiphenyl-4-yl)ethoxy)pyrimidin-4-yl)phenyl)propanoic acid]",brain serotonin content,brain serotonin [1],no change
same,decrease of serum serotonin levels,serum serotonin; [3],80%
same,serum serotonin levels,serum serotonin; day 1 to 28 post-ovariectomy,decreased
same,brain serotonin content,brain serotonin [2]; [3],unaffected
same,brain serotonin content,brain serotonin [2]; day 1 to 28 post-ovariectomy,unaffected
same,number of osteoclasts per bone surface (OcS/BS) versus untreated ovariectomized rats,ovariectomized rats,similar
same,"ovariectomy-induced bone loss, histomorphometric analysis of vertebra","ovariectomized rats; given 3 or 12 weeks post-ovariectomy for 4 weeks, even at 25 mg/kg/day",fully rescued
same,"efficiency compared with PTH (80 μg/kg/day, s.c.)","ovariectomized rats; long bones, μCT",as efficient as the PTH regimen
same,trabecular spacing (Tb.Sp*),ovariectomized rats; [4],reduced
same,trabecular thickness (Tb.Th*),ovariectomized rats; [4],significantly increased
same,trabecular number (Tb.N*),"ovariectomized rats; long bones, μCT, all doses tested (25, 100, 250 mg/kg/day)",significantly increased
same,bone formation rate,ovariectomized rats; vertebra,significant increase
same,osteoblast number,ovariectomized rats; vertebra,significant increase
same,bone mass in long bones versus vehicle-treated controls,ovariectomized rats; μCT,"increasing, in a dose-dependent manner"
same,decrease in cortical thickness at the femur mid-shaft,ovariectomized rats; [5],equally rescued
same,"maximal load (femur, vertebra)",ovariectomized rats; [5],restored to values seen in sham-operated rats
same,"stiffness (femur, vertebra)",ovariectomized rats; [5],restored to values seen in sham-operated rats
same,increase in bone mass,naive mice,also observed in naive mice
